The numbers were not newly measured in patent US20130347140A1, “High Rebaudioside-A Plant and Methods of Producing the Same and Uses Thereof” (priority 2010, published 2013), which cites them from elsewhere.

The conditions of the data set: vs sugar.

For `C=C1C[C@@]23CC[C@H]4[C@@](C)(CCC[C@@]4(C)C(=O)O[C@@H]4O[C@H](CO)[C@@H](O)[C@H](O)[C@H]4O)[C@@H]2CC[C@]1(O[C@@H]1O[C@H](CO)[C@@H](O)[C@H](O[C@@H]2O[C@H](CO)[C@@H](O)[C@H](O)[C@H]2O)[C@H]1O[C@@H]1O[C@H](CO)[C@@H](O)[C@H](O)[C@H]1O)C3` [Rebaudioside A], the “sweetness, × of sugar” value was 350-450 ×.

`C=C1C[C@@]23CC[C@H]4[C@@](C)(CCC[C@@]4(C)C(=O)O[C@@H]4O[C@H](CO)[C@@H](O)[C@H](O)[C@H]4O)[C@@H]2CC[C@]1(O[C@@H]1O[C@H](CO)[C@@H](O)[C@H](O)[C@H]1O[C@@H]1O[C@H](CO)[C@@H](O)[C@H](O)[C@H]1O)C3` [Stevioside]: the “sweetness, × of sugar” value is 250-300 ×.
